The text below walks through data of patent US20160130311A1, “T CELL EPITOPES DERIVED FROM ALT A 1 OR ALT A 5 FOR THE TREATMENT OF ALTERNARIA ALTERNATA ALLERGY” (priority 2013, published 2016).

Data set [1] in a line: Peptide solubility in sterile pure water. It is filed as physicochemical. The method, then: The theoretical average peptide hydrophilicity was calculated using the Hopp and Woods scale (28). For solubility determination, peptides were dissolved in sterile pure water at 50mg/ml (pH=7), mixed, centrifuged and the presence of a pellet indicated insolubility. Insoluble peptides were sequentially diluted and tested down to 2.5mg/ml or until solubility was observed. Peptides not fully dissolved at 2.5mg/ml were considered insoluble in this study.

Data set [2] has as its system T cells expanded for 14 days with allergen extract and IL-2. Conditions: allergic population; cited from earlier work.
The test system of data set [3] is PBMCs of Alternaria allergic patients and control subjects. Briefly: IL-4 ELISPOT of PBMCs exposed to peptide. In kind it is cell-based, human. Particulars: for number of patients stimulated: IL-4 ELISPOT, cut-off >9 spot counts. The text has this:
Peripheral blood was obtained by venipuncture from Alternaria allergic patients and non-sensitized controls. Peripheral blood mononuclear cells (PBMCs) were isolated from heparinized blood by standard Ficoll density gradient centrifugation. PBMCs were washed with CTL (Cellular Technology Limited, Cleveland, Ohio, USA) wash medium containing RPMI-1640 with L-glutamine (Lonza, Basel, Switzerland) before being counted by haemocytometer using trypan blue stain (Sigma). PBMCs (10 million/ml) were resuspended in CTL-Cryo ABC serum-free freezing medium according to the manufacturer's protocol before being frozen overnight at −80° C. and transferred to and stored in liquid nitrogen until time of use.
Enzyme-linked immunospot assay (ELISPOT) analysis was performed utilizing 16 Alternaria patients and 11 controls. For an individual peptide the number of Alternaria patients tested ranged between 10-15 and the number of control subjects ranged between 7-9. Ten Alternaria patients were fully tested with all 22 peptides. For ELISPOT, the BD ELISPOT Human IL-4 Set (BD Biosciences, San Diego, Calif., USA) was used to analyze IL-4 production by human PBMCs. Plates were coated overnight at 4° C. with IL-4 capture antibody (BD Biosciences) and then washed 3 times with Dulbecco's Phosphate Buffer Saline (DPBS, Sigma). Plates were blocked with 1% BSA (Sigma) in PBS for 2 h at room temperature and washed 3 times with DPBS. Cryopreserved Alternaria patient and control subject PBMCs were thawed rapidly, washed, counted, and resuspended in CTL Test Medium supplemented with 2 mM L-glutamine (Sigma) and used at a concentration of 300,000 cells/well contained in 100 μl. […] The plates were dried and analyzed on the ImmunoSpot UV Core ELISPOT Plate Reader (Cellular Technology Limited).
The two-independent sample Wilcoxon rank sum test was used for statistical analysis of ELISPOT data (26). A one-sided control<patient p-value was determined except for peptides 7-21 and 143-157 where a one-sided patient >control p-value was calculated. […]
Two methods were evaluated to interpret the IL-4 ELISPOT spot count data. […]

Data set [4] addresses DRB1*0101, 0301, 0401, 0701, 1101, 1301,1501 (Homo sapiens, UniProt P01903+P01911, A100R/D57E/F55L/F60I/F76Y/I96L/L162R/M171V/P40L/Q125E/R42F/V115G/Y59C). Briefly: REVEAL Class II binding assay and Quick Check Stability Assay (MHC-peptide binding). Conditions: 7 DRB1 alleles; stability index ≧1.0 considered positive for MHC binding. On the procedure:
The MHC restriction of peptides from ProPred prediction were evaluated using the REVEAL Class II binding assay and Quick Check Stability Assay performed by ProImmune (Oxford, United Kingdom). In the REVEAL cell free in vitro assay, the binding of a peptide to an HLA molecule is determined by its ability to stabilize a MHC class II-peptide complex. Each MHC class II-peptide binding was scored relative to a validated proprietary T cell epitope control peptide. The score was determined as the percentage of the signal generated by the test peptide versus the level for the positive control peptide and reflects the on-rate properties of peptide. The off-rate properties of the peptide were determined by the Quick Check Stability Assay which measured the amount of peptide bound at time zero and time 24 hours at 37° C. The two signals were used to estimate a half-life which was multiplied by the REVEAL score and divided by 100 to yield the combined stability index. A stability index ≧1.0 was considered positive for MHC binding.
To confirm ProPred predictions and to validate peptides for continued analysis using IL-4 ELISPOT, an in vitro MHC-peptide binding assay was used to measure binding of 22/25 15mers (excluding p3-17, 42-56, and 43-57) to the 7 DRB1 alleles which accounted for the majority of the ProPred predictions (Table II). […] High stringency binding prediction rates were accurate for alleles *0301 (none predicted) and *1501 (none predicted), while inaccurate with low stringency positive binding prediction rates of 0% (0/10) and 25% (1/4), respectively. Both alleles *0301 and *1501 had low false negative rates of 8% (1/12) and 6% (1/18), respectively. ProPred was inaccurate at both high and low stringency for the three remaining alleles with a 0% binding prediction rate for *0701 (0/9), *1101 (0/14) and *1301 (0/7) but also yielding 0% false negative rates at 0/13, 0/8 and 0/14, respectively. […]

The mark [5] stands for this setting: sterile pure water pH=7, 50mg/ml diluted down to 2.5mg/ml, not fully dissolved at 2.5mg/ml = insoluble.

Entries after “also recorded” stand apart in the source; their conditions may differ. Like-named read-outs stand apart in the source and are kept apart here.

In the case of `CC[C@H](C)[C@H](N)C(=O)N[C@@H](C)C(=O)N[C@@H](CO)C(=O)N[C@@H](CC(C)C)C(=O)N[C@@H](Cc1ccccc1)C(=O)N[C@@H](C)C(=O)N[C@@H](C)C(=O)N[C@@H](C)C(=O)NCC(=O)N[C@@H](CC(C)C)C(=O)N[C@@H](C)C(=O)N[C@@H](C)C(=O)N[C@@H](C)C(=O)N[C@@H](C)C(=O)N1CCC[C@H]1C(=O)O` [p6-20], the “solubility in H2O” value in data set [1] was “insoluble”. For the same molecule, in data set [2], the “IL-5 and INF-γ ELISPOT result” value is listed as “positive for IL-5 only”. With `CC[C@H](C)[C@H](NC(=O)[C@H](Cc1ccc(O)cc1)NC(=O)[C@H](C)NC(=O)[C@H](CC(=O)O)NC(=O)[C@H](C)NC(=O)[C@@H](N)C(C)C)C(=O)N[C@H](C(=O)N[C@@H](CC(C)C)C(=O)N[C@H](C(=O)N[C@H](C(=O)N[C@@H](CC(C)C)C(=O)N1CCC[C@H]1C(=O)N[C@@H](CCCCN)C(=O)N[C@@H](CO)C(=O)N[C@@H](CO)C(=O)O)[C@@H](C)O)C(C)C)[C@@H](C)O` [p143-157], in data set [3], the “number of patients stimulated” value was “one”. In data set [1], the “solubility in H2O” value is reported as “insoluble”. For the same molecule, in data set [2], the “IL-5 and INF-γ ELISPOT result” value was “positive for IL-5 only”. Turning to H-AADAYITLVTLPKSS-OH [p143-157:V143A], the “solubility in H2O” value in data set [1] is “insoluble”. For H-AAYLLLGLGGNTSPS-OH [p5-19], the “activity in Alternaria patients (ELISPOT)” value in data set [3] (Alt a 5 peptide, three Alternaria patients, methods as Example 1) is given as “active in all 3 patients”. Regarding H-ANSLGFNIKATNGGT-OH [p55-69:Y55A], the “solubility in H2O” value in data set [1] is “soluble”. Consider H-ASLFAAAGLAAAAPL-OH [p7-21], for which the “solubility in H2O” value in data set [1] (setting [5]) is given as “insoluble”. Take H-EADAYITLVTLPKSS-OH [p143-157:V143E]: in data set [1], the “solubility in H2O” value is recorded as “soluble”. For the molecule H-EDDITYVATATLPNY-OH [p113-127:S113E], the “solubility in H2O” value in data set [1] was “insoluble”.

For H-EETYYNSLGFNIKAT-OH [p51-65:G52E], the “solubility in H2O” value in data set [1] is on record as “insoluble”. With H-EGDYVWKISEFYGRK-OH [p35-49], the “in vitro binding to DRB1 alleles” value in data set [4] is given as “non-binding; also recorded: no in vitro binding to any DRB1 allele”. On to H-EGTYYNSLGFNIKAT-OH [p51-65], for which the “solubility in H2O” value in data set [1] (setting [5]) is recorded as “insoluble”.

H-EKDFVVQGVADAYIT-OH [p135-149:P135E]: the “solubility in H2O” value in data set [1] is reported as “insoluble”. In the case of H-ENSLGFNIKATNGGT-OH [p55-69:Y55E], the “solubility in H2O” value in data set [1] is given as “soluble”. Still for that read-out and setting: for H-ESTYYNSLGFNIKAT-OH [p51-65:G52S] the value was “soluble”; for H-ETYYNSLGFNIKATN-OH [p52-66:G52E], “insoluble”. Consider H-FTTIASLFAAAGLAA-OH [p3-17], for which the “solubility in H2O” value in data set [1] (setting [5]) is on record as “insoluble”.

In the case of H-GTYYNSLGFNIKATN-OH [p52-66], in data set [1] (setting [5]), the “solubility in H2O” value is given as “insoluble”. On to H-LQFTTIASLFAAAGL-OH [p1-15], for which, in data set [3], the “number of patients stimulated” value is recorded as “one”. Further, the “solubility in H2O” value in data set [1] is “insoluble”. Besides, in data set [2], the “IL-5 and INF-γ ELISPOT result” value is on record as “negative to both cytokines”. Turning to H-PKDFVVQGVADAYIT-OH [p135-149], the “solubility in H2O” value in data set [1] is listed as “insoluble”. Regarding H-RSGLLLKQKVSDDIT-OH [p103-117], the “in vitro binding to DRB1 alleles” value in data set [4] is reported as “non-binding; also recorded: no in vitro binding to any DRB1 allele”. H-SADAYITLVTLPKSS-OH [p143-157:V143S]: in data set [1], the “solubility in H2O” value is given as “soluble”. As for H-SDDITYVATATLPNY-OH [p113-127], in data set [1] (setting [5]), the “solubility in H2O” value was “insoluble”. As to H-SGLLLKQKVSDDITY-OH [p104-118], the “in vitro binding to DRB1 alleles” value in data set [4] is “non-binding; also recorded: no in vitro binding to any DRB1 allele”.

Consider H-SKDFVVQGVADAYIT-OH [p135-149:P135S], for which the “solubility in H2O” value in data set [1] is listed as “insoluble”.

On to H-SNSLGFNIKATNGGT-OH [p55-69:Y55S], for which the “solubility in H2O” value in data set [1] was “soluble”.

With H-STYYNSLGFNIKATN-OH [p52-66:G52S], the “solubility in H2O” value in data set [1] is listed as “soluble”.

In the case of H-VNSLGFNIKATNGGT-OH [p55-69:Y55V], the “solubility in H2O” value in data set [1] was “insoluble”.

For H-YNSLGFNIKATNGGT-OH [p55-69], in data set [1] (setting [5]), the “solubility in H2O” value is recorded as “insoluble”.
